Test results: US7816522B2, “Triazolone derivatives” (Eisai Co., Ltd., priority 2006, dated 2010)

Target: T1, human clotting factor VIIa (Homo sapiens, UniProt P08709)
T1 construct: a human clotting factor VIIa (hereinafter, “Factor VIIa”) purified sample; purchased Enzyme Research Laboratories HFVIIa
Experiment: Inhibitory activity against clotting factor VIIa (chromogenic substrate Spectrozyme FVIIa, TF/Factor VIIa enzyme solution)
Format: biochemical
Settings: human Factor VIIa 5 nmol/L with human TF 10 nmol/L, room temperature 40 minutes, 405 nm
Method: [Inhibitory Activity Against Clotting Factor VIIa]
Dimethylsulfoxide (DMSO) solutions were prepared with compounds of the invention at concentration of 10 mmol/L (10 mmol/L compound solutions).
One packet of tris-hydroxymethylaminomethane-preset (hereinafter referred to as “Tris preset”) (Product of Sigma Corp., Catalog No. T8293), 8.8 g of sodium chloride (NaCl) and 1 g of bovine serum albumin (hereinafter abbreviated as “BSA”) were dissolved in 1 L of water to prepare a Tris-BSA buffer (100 mmol/L Tris, 0.15 mol/L NaCl, 0.1% BSA, pH 7.4).
This Tris-BSA buffer (180 μL) was added to the aforementioned 10 mmol/L compound solution (20 μL). A 10-fold dilution series was prepared for this mixture using the aforementioned Tris-BSA buffer, and solutions with the compound at concentrations of 1.0 mmol/L, 100, 10, 1, 0.1, 0.01 and 0.001 μmol/L were prepared (1.0 mmol-0.001 μmol/L compound solutions). As a control, a solution was prepared by 10-fold dilution of DMSO with the Tris-BSA buffer (hereinafter referred to as “control 10% solution”).
After dissolving one packet of Tris preset, NaCl (8.8 g) and BSA (1 g) in water (about 900 mL), there were added 1 mol/L aqueous calcium chloride (CaCl2) (15 mL) and 1 mg/mL aqueous cephalin (30 mL), and the total volume was brought to 1 L by adding water. To this solution there was added a human tissue factor (hereinafter, “TF”) sample (product of Calbiochem, Catalog No. 612151) (450 μg) to a TF sample concentration of 10 nmol/L, and then a human clotting factor VIIa (hereinafter, “Factor VIIa”) purified sample (product of Enzyme Research Laboratories, Catalog No. HFVIIa) (250 μg) was added to a Factor VIIa purified sample concentration of 5 nmol/L, to prepare an enzyme solution (100 mmol/L Tris-HCl, 0.15 mol/L NaCl, 15 mmol/L CaCl2, 30 μg/mL cephalin, 1 mg/mL BSA, 10 nmol/L TF, 5 nmol/L Factor VIIa).
To 110 μL of this enzyme solution there was added 15 μL of each of the 1.0 mmol-0.001 μmol/L compound solutions, and then 25 μL of a 1.0 mmol/L synthetic chromogenic substrate solution (Spectrozyme FVIIa, product of American Diagnostica, Catalog No. 217L) was added and the mixture was allowed to stand at room temperature for 40 minutes. Next, the amount of 4-nitroanilide released into the solution was quantitated by spectrophotometry (405 nm).
A control measurement was conducted in the same manner, using the control 10% solution instead of the compound solution.
This measurement yielded the enzyme reaction inhibition in the presence of 100 μmol/L to 0.1 nmol/L of each compound of the invention.
The enzyme reaction inhibition at each compound concentration was subjected to non-linear regression analysis, and the IC50 value for inhibitory activity of each compound against clotting factor VIIa was calculated.

T1 sequence (P08709 213-466 limits assumed): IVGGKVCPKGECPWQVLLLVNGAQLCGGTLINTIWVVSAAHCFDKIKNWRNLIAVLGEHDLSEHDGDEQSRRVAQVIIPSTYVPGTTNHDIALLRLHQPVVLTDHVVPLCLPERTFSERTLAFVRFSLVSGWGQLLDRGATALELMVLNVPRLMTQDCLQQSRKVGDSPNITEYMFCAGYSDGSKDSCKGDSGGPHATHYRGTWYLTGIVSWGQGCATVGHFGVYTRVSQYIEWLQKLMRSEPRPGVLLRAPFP
T1 sequence (P08709 61-212 limits assumed): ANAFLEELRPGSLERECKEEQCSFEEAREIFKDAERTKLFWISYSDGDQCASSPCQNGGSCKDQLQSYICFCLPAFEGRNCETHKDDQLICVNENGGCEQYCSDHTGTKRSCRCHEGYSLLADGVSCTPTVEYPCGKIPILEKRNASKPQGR
T1 sequence (P13726 33-295 partner): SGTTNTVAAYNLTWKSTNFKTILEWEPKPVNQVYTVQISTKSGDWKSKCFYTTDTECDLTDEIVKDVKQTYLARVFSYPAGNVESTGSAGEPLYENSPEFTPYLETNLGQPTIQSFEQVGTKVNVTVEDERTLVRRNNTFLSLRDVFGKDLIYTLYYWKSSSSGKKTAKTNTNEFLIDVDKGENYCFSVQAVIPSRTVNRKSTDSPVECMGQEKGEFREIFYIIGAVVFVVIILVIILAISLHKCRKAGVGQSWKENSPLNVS

## C=Cc1cc(OCCO)cc(C(Nc2ccc(C(=N)N)cc2)c2nn(-c3ncccn3)c(=O)[nH]2)c1 (racemic) [Example 46, (R) and (S)-4-({[3-(2-hydroxyethoxy)-5-vinylphenyl]-(5-oxo-1-pyrimidin-2-yl-4,5-dihydro-1H-[1,2,4]triazol-3-yl)methyl}amino)benzamidine acetate]
  IC50: 3.8 nM

## C=Cc1cc(O)cc(C(Nc2ccc(C(=N)N)cc2)c2nn(-c3ncccn3)c(=O)[nH]2)c1 (racemic) [Example 47, 4-{[(3-hydroxy-5-vinylphenyl)-(5-oxo-1-pyrimidin-2-yl-4,5-dihydro-1H-[1,2,4]triazol-3-yl)methyl]amino}benzamidine]
  IC50: 8.9 nM

## COc1cc(OCCF)c(F)c(C(Nc2ccc(C(=N)N)cc2)c2nn(-c3cccnc3N)c(=O)[nH]2)c1 (racemic) [Example 50, (R) and (S)-4-({[1-(2-aminopyridin-3-yl)-5-oxo-4,5-dihydro-1H-[1,2,4]triazol-3-yl]-[2-fluoro-3-(2-fluoroethoxy)-5-methoxyphenyl]methyl}amino)benzamidine diacetate]
  IC50: 3.2 nM

## COc1cc(C(Nc2ccc(C(=N)N)cc2)c2nn(-c3ncccc3N)c(=O)[nH]2)c(F)c2c1OCC2 (racemic) [Example 52, (R) and (S)-4-({[1-(3-aminopyridin-2-yl)-5-oxo-4,5-dihydro-1H-[1,2,4]triazol-3-yl]-(4-fluoro-7-methoxy-2,3-dihydrobenzofuran-5-yl)methyl}amino)benzamidine diacetate]
  IC50: 5.2 nM

## COc1cc(C(Nc2ccc(C(=N)N)cc2)c2nn(-c3ncccn3)c(=O)[nH]2)ccc1OCF (racemic) [Example 53, (R) and (S)-4-{[(4-fluoromethoxy-3-methoxyphenyl)-(5-oxo-1-pyrimidin-2-yl-4,5-dihydro-1H-[1,2,4]triazol-3-yl)methyl]amino}benzamidine acetate]
  IC50: 10.6 nM

## COc1cc(C(Nc2ccc(C(=N)N)cc2)c2nn(-c3ncccn3)c(=O)[nH]2)cc(OC)n1 (racemic) [Example 54, (R) and (S)-4-{[(2,6-dimethoxypyridin-4-yl)-(5-oxo-1-pyrimidin-2-yl-4,5-dihydro-1H-[1,2,4]triazol-3-yl)methyl]amino}benzamidine acetate]
  IC50: 18.7 nM

## COc1cc(C(Nc2ccc(C(=N)N)cc2)c2nn(-c3ncccc3N)c(=O)[nH]2)cc(OC)n1 (racemic) [Example 55, (R) and (S)-4-({[1-(3-aminopyridin-2-yl)-5-oxo-4,5-dihydro-1H-[1,2,4]triazol-3-yl]-(2,6-dimethoxypyridin-4-yl)methyl}amino)benzamidine acetate]
  IC50: 10.3 nM

## COc1cc(C(Nc2ccc(C(=N)N)cc2)c2nn(-c3ncccc3F)c(=O)[nH]2)cc(OC)n1 (racemic) [Example 56, (R) and (S)-4-{[(2,6-dimethoxypyridin-4-yl)-[1-(3-fluoropyridin-2-yl)-5-oxo-4,5-dihydro-1H-[1,2,4]triazol-3-yl)methyl]amino}benzamidine acetate]
  IC50: 11.2 nM

## Cc1cc(O[C@H]2CCOC2)cc(C(Nc2ccc(C(=N)N)cc2)c2nn(-c3ncccn3)c(=O)[nH]2)c1 (mixture of isomers) [Example 58, 4-[((R) and (S)-{3-methyl-5-[(S)-(tetrahydrofuran-3-yl)oxy]phenyl}-(5-oxo-1-pyrimidin-2-yl-4,5-dihydro-1H-[1,2,4]triazol-3-yl)methyl)amino]benzamidine acetate]
  IC50: 3.4 nM

## Cc1cc(O[C@@H]2CCOC2)cc(C(Nc2ccc(C(=N)N)cc2)c2nn(-c3ncccn3)c(=O)[nH]2)c1 (mixture of isomers) [Example 59, 4-[((R) and (S)-{3-methyl-5-[(R)-(tetrahydrofuran-3-yl)oxy]phenyl}-(5-oxo-1-pyrimidin-2-yl-4,5-dihydro-1H-[1,2,4]triazol-3-yl)methyl)amino]benzamidine acetate]
  IC50: 4.5 nM

## Cc1cc(OC2CCOCC2)cc(C(Nc2ccc(C(=N)N)cc2)c2nn(-c3ncccn3)c(=O)[nH]2)c1 (racemic) [Example 60, (R) and (S)-4-({[3-methyl-5-(tetrahydropyran-4-yloxy)phenyl]-(5-oxo-1-pyrimidin-2-yl-4,5-dihydro-1H-[1,2,4]triazol-3-yl)methyl}amino)benzamidine acetate]
  IC50: 3.7 nM

## COc1cc(OCCF)cc(C(Nc2ccc(C(=N)N)cc2)c2nn(-c3ncccn3)c(=O)[nH]2)c1 (racemic) [Example 61, (R) and (S)-4-({[3-(2-fluoroethoxy)-5-methoxyphenyl]-(5-oxo-1-pyrimidin-2-yl-4,5-dihydro-1H-[1,2,4]triazol-3-yl)methyl}amino)benzamidine acetate]
  IC50: 5.6 nM

## COc1cc(OCC(=O)N(C)C)cc(C(Nc2ccc(C(=N)N)cc2)c2nn(-c3ncccn3)c(=O)[nH]2)c1 (racemic) [Example 62, (R) and (S)-2-{3-[(4-carbamimidoylphenylamino)-(5-oxo-1-pyrimidin-2-yl-4,5-dihydro-1H-[1,2,4]triazol-3-yl)methyl]-5-methoxyphenoxy}-N,N-dimethylacetamide acetate]
  IC50: 24.4 nM

## COc1cc(OC2CCOCC2)cc(C(Nc2ccc(C(=N)N)cc2)c2nn(-c3ncccn3)c(=O)[nH]2)c1 (racemic) [Example 63, (R) and (S)-4-({[3-methoxy-5-(tetrahydropyran-4-yloxy)phenyl]-(5-oxo-1-pyrimidin-2-yl-4,5-dihydro-1H-[1,2,4]triazol-3-yl)methyl}amino)benzamidine acetate]
  IC50: 3.9 nM

## COc1cc(OCCF)cc(C(Nc2ccc(C(=N)N)cc2)c2nn(-c3cccnn3)c(=O)[nH]2)c1 (racemic) [Example 64, (R) and (S)-4-({[3-(2-fluoroethoxy)-5-methoxyphenyl]-(5-oxo-1-pyridazin-3-yl-4,5-dihydro-1H-[1,2,4]triazol-3-yl)methyl}amino)benzamidine acetate]
  IC50: 4.2 nM

## CCOc1cc(OC)cc(C(Nc2ccc(C(=N)N)cc2)c2nn(-c3cccnn3)c(=O)[nH]2)c1 (racemic) [Example 65, (R) and (S)-4-{[(3-ethoxy-5-methoxyphenyl)-(5-oxo-1-pyridazin-3-yl-4,5-dihydro-1H-[1,2,4]triazol-3-yl)methyl]amino}benzamidine acetate]
  IC50: 5.3 nM

## COc1cc(OC)c(F)c(C(Nc2ccc(C(=N)N)cc2)c2nn(-c3ncccn3)c(=O)[nH]2)c1 (racemic) [Example 66, (R) and (S)-4-{[(2-fluoro-3,5-dimethoxyphenyl)-(5-oxo-1-pyrimidin-2-yl-4,5-dihydro-1H-[1,2,4]triazol-3-yl)methyl]amino}benzamidine acetate]
  IC50: 7.9 nM

## COc1cc(C(Nc2ccc(C(=N)N)cc2)c2nn(-c3ncccn3)c(=O)[nH]2)c(F)c(OC)c1OC (racemic) [Example 67, (R) and (S)-4-{[(2-fluoro-3,4,5-trimethoxyphenyl)-(5-oxo-1-pyrimidin-2-yl-4,5-dihydro-1H-[1,2,4]triazol-3-yl)methyl]amino}benzamidine acetate]
  IC50: 4.5 nM

## CCOc1cc(OCCF)c(F)c(C(Nc2ccc(C(=N)N)cc2)c2nn(-c3ncccn3)c(=O)[nH]2)c1 (racemic) [Example 68, (R) and (S)-4-({[2-fluoro-3-(2-fluoroethoxy)-5-ethoxyphenyl]-(5-oxo-1-pyrimidin-2-yl-4,5-dihydro-1H-[1,2,4]triazol-3-yl)methyl}amino)benzamidine acetate]
  IC50: 6.7 nM

## CCOc1cc(OC)c(F)c(C(Nc2ccc(C(=N)N)cc2)c2nn(-c3ncccn3)c(=O)[nH]2)c1 (racemic) [Example 69, (R) and (S)-4-{[(5-ethoxy-2-fluoro-3-methoxyphenyl)-(5-oxo-1-pyrimidin-2-yl-4,5-dihydro-1H-[1,2,4]triazol-3-yl)methyl]amino}benzamidine acetate]
  IC50: 15.1 nM

## CCOc1cc(OCCF)c(F)c(C(Nc2ccc(C(=N)N)cc2)c2nn(-c3cccnn3)c(=O)[nH]2)c1 (racemic) [Example 70, 4-({(R) and (S)-[5-ethoxy-2-fluoro-3-(2-fluoroethoxy)phenyl]-(5-oxo-1-pyridazin-3-yl-4,5-dihydro-1H-[1,2,4]triazol-3-yl)methyl}amino)benzamidine acetate]
  IC50: 4.9 nM
